Results on three compounds are retold here after patent US12479847B2 (DANA-FARBER CANCER INSTITUTE, INC., priority 2019, dated 2025).

Each structure is given as a SMILES string.

Test in all cases: KINOMEscan (ScanMAX) kinase profiling
Holding throughout (assay type): binding

Assay [1] deals with T1, panel of 468 kinases (Homo sapiens, UniProt O94804).
T1 construct: purchased KINOMEscan (ScanMAX) service
The following applies: LOK; 1 μM; read-out: % control.

The target of assay [2] is T2, panel of 468 kinases (Homo sapiens, UniProt Q9H093).
T2 construct: purchased KINOMEscan (ScanMAX) service
T2 sequence (Q9H093 1-628): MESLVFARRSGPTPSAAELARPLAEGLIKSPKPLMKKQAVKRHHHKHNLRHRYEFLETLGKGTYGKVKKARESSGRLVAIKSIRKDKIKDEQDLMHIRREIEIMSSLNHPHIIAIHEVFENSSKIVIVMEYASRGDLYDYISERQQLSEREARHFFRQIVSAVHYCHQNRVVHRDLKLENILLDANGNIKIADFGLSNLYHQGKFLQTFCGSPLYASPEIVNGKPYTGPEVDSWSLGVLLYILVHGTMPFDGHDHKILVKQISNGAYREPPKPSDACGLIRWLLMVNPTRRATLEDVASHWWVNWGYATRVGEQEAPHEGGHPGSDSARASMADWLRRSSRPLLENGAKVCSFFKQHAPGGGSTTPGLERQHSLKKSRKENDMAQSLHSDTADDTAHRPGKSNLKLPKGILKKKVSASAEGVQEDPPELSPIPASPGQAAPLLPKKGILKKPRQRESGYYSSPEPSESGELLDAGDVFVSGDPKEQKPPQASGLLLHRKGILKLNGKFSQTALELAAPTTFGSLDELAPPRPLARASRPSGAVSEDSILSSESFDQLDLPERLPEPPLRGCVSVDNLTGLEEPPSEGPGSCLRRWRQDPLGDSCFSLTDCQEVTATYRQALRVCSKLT
The following applies: SNARK; 1 μM; read-out: % control.

The target in assay [3] is T3, panel of 468 kinases (Homo sapiens, UniProt P10721, D816V).
T3 construct: purchased KINOMEscan (ScanMAX) service
The following applies: KIT(D816V); 1 μM; read-out: % control.

Assay [4] deals with T4, panel of 468 kinases (Homo sapiens, UniProt O43283).
T4 construct: purchased KINOMEscan (ScanMAX) service
T4 sequence (O43283 1-966): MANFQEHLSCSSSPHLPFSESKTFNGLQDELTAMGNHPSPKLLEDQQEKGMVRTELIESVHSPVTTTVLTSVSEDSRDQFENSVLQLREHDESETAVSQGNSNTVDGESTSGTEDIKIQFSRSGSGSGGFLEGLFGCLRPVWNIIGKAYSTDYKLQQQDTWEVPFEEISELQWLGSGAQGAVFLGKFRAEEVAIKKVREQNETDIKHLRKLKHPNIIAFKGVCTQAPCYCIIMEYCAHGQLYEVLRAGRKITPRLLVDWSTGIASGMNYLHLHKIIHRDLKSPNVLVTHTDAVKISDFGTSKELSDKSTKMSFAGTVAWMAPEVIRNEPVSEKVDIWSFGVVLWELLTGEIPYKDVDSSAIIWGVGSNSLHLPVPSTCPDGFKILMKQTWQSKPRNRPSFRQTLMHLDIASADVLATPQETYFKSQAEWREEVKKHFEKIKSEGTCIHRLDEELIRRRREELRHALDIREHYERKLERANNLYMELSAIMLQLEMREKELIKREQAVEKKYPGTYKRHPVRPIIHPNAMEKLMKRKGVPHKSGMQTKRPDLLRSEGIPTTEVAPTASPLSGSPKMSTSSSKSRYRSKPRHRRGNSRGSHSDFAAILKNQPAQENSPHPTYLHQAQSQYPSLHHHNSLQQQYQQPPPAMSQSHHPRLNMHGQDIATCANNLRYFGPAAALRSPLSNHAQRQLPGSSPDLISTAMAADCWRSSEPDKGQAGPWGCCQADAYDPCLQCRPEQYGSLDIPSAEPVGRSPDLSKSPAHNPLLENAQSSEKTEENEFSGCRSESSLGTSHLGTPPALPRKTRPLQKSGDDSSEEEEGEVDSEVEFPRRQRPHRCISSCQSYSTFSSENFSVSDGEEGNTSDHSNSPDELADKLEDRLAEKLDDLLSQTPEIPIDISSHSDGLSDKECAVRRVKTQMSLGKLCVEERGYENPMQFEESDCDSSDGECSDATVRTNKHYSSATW
The settings on record: LZK; 1 μM; read-out: % control.

Assay [5] concerns the target T5, panel of 468 kinases (Homo sapiens, UniProt P31751).
T5 construct: purchased KINOMEscan (ScanMAX) service
The settings on record: AKT2; 1 μM; read-out: % control.

The target of assay [6] is T6, panel of 468 kinases (Homo sapiens, UniProt P11362).
T6 construct: purchased KINOMEscan (ScanMAX) service
The settings on record: FGFR1; 1 μM; read-out: % control.

Assay [7] addresses T7, panel of 468 kinases (Homo sapiens, UniProt P49336).
T7 construct: purchased KINOMEscan (ScanMAX) service
The following applies: CDK8; 1 μM; read-out: % control.

The target of assay [8] is T8, panel of 468 kinases (Homo sapiens, UniProt P10721, T670I/V559D).
T8 construct: purchased KINOMEscan (ScanMAX) service
The settings on record: KIT(V559D,T670I); 1 μM; read-out: % control.

For assay [9], the target named is T9, panel of 468 kinases (Homo sapiens, UniProt Q00536).
T9 construct: purchased KINOMEscan (ScanMAX) service
The settings on record: PCTK1; 1 μM; read-out: % control.

Assay [10] concerns the target T10, panel of 468 kinases (Homo sapiens, UniProt Q6DT37).
T10 construct: purchased KINOMEscan (ScanMAX) service
The settings on record: DMPK2; 1 μM; read-out: % control.

The target of assay [11] is T11, panel of 468 kinases (Homo sapiens, UniProt Q9HCP0).
T11 construct: purchased KINOMEscan (ScanMAX) service
The settings on record: CSNK1G1; 1 μM; read-out: % control.

The target of assay [12] is T12, panel of 468 kinases (Homo sapiens, UniProt P42336, E542K).
T12 construct: purchased KINOMEscan (ScanMAX) service
The settings on record: PIK3CA(E542K); 1 μM; read-out: % control.

Assay [13] deals with T13, panel of 468 kinases (Homo sapiens, UniProt Q96SB4).
T13 construct: purchased KINOMEscan (ScanMAX) service
The following applies: SRPK1; 1 μM; read-out: % control.

T3 sequence (P10721 26-976 D816V): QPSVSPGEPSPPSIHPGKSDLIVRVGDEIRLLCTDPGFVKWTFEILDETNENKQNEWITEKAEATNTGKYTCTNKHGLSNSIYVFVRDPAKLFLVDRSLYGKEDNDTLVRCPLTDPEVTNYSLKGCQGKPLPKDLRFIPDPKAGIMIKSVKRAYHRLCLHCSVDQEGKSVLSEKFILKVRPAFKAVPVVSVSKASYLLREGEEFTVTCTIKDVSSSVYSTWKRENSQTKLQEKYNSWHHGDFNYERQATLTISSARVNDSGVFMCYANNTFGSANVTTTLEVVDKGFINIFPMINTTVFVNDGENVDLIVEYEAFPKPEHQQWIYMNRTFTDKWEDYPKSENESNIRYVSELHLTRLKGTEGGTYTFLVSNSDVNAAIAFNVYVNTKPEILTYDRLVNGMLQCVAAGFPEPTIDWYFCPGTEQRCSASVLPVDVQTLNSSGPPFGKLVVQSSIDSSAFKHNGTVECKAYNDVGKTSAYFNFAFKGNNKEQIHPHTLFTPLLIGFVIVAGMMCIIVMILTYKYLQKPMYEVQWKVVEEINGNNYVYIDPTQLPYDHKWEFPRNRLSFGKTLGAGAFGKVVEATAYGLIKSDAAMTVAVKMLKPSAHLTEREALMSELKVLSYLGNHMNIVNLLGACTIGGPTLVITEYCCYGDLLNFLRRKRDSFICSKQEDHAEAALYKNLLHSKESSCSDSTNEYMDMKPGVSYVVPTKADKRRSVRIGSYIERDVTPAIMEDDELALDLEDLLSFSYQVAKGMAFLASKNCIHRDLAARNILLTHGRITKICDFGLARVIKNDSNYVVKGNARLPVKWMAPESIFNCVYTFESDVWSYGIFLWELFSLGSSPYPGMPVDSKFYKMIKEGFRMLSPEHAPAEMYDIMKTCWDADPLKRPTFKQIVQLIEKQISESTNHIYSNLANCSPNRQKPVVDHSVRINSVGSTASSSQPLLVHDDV
T7 sequence (P49336 whole entry): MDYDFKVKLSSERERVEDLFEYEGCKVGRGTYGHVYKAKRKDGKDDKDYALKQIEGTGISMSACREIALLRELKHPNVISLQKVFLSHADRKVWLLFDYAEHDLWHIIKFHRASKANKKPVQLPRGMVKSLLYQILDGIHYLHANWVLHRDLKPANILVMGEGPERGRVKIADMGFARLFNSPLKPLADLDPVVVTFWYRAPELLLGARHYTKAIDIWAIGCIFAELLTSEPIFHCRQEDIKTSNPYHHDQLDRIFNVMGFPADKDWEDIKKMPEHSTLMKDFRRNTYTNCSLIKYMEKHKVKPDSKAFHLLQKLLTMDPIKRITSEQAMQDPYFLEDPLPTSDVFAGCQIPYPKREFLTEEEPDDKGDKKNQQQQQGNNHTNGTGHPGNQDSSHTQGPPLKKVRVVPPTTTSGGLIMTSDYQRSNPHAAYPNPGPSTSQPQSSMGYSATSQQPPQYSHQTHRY
T13 sequence (Q96SB4 whole entry): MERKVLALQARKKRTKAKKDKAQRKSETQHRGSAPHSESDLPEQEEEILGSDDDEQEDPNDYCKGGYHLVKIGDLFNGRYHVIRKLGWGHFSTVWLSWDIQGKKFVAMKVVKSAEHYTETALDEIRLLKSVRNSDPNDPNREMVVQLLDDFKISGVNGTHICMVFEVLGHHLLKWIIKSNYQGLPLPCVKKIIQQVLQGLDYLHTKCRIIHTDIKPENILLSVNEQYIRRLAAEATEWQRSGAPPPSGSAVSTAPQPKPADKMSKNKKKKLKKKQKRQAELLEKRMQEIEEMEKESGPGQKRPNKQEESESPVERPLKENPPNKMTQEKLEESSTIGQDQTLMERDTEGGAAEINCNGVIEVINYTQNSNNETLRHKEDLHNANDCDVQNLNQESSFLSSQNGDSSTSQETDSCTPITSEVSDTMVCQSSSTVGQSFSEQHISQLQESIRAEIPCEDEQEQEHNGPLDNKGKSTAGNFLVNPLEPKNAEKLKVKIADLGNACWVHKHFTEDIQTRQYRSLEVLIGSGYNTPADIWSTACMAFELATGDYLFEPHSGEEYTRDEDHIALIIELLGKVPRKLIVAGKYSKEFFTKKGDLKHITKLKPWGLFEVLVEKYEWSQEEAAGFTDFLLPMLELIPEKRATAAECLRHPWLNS
T8 sequence (P10721 26-976 V559D/T670I): as the sequence (P10721 26-976 D816V) above, with V534D, T645I, V791D counted along it
T11 sequence (Q9HCP0 whole entry): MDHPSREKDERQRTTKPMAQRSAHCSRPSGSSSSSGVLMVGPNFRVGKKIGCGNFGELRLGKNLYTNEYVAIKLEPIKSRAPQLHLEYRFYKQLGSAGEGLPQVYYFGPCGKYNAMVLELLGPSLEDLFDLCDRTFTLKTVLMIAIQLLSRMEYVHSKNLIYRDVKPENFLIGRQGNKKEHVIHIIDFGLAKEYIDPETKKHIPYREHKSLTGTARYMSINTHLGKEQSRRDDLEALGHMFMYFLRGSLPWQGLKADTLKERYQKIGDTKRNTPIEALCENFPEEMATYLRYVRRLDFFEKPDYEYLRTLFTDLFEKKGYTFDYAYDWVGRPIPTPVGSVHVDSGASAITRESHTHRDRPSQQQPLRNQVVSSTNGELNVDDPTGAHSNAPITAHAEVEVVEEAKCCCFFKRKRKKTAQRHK
T6 sequence (P11362 22-822): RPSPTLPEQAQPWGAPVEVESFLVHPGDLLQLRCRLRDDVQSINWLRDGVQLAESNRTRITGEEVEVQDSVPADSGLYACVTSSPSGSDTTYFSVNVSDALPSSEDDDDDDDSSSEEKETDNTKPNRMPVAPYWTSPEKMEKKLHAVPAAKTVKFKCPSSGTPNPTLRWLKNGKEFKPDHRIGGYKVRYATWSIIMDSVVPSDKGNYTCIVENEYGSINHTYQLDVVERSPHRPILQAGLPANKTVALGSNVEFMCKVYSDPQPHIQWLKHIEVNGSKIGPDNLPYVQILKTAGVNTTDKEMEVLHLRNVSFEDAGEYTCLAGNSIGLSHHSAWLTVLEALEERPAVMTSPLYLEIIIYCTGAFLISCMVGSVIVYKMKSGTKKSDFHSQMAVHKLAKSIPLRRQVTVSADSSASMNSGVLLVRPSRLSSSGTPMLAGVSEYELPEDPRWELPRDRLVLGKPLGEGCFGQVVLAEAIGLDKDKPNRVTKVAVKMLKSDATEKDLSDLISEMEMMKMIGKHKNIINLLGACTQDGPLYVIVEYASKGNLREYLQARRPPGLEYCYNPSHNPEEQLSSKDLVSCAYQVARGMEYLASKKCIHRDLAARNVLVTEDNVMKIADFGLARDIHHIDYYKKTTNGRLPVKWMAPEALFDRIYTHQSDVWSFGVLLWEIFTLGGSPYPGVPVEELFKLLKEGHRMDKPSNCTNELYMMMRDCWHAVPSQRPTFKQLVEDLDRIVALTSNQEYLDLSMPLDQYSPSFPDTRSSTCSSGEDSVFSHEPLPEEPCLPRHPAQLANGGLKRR
T12 sequence (P42336 whole entry E542K): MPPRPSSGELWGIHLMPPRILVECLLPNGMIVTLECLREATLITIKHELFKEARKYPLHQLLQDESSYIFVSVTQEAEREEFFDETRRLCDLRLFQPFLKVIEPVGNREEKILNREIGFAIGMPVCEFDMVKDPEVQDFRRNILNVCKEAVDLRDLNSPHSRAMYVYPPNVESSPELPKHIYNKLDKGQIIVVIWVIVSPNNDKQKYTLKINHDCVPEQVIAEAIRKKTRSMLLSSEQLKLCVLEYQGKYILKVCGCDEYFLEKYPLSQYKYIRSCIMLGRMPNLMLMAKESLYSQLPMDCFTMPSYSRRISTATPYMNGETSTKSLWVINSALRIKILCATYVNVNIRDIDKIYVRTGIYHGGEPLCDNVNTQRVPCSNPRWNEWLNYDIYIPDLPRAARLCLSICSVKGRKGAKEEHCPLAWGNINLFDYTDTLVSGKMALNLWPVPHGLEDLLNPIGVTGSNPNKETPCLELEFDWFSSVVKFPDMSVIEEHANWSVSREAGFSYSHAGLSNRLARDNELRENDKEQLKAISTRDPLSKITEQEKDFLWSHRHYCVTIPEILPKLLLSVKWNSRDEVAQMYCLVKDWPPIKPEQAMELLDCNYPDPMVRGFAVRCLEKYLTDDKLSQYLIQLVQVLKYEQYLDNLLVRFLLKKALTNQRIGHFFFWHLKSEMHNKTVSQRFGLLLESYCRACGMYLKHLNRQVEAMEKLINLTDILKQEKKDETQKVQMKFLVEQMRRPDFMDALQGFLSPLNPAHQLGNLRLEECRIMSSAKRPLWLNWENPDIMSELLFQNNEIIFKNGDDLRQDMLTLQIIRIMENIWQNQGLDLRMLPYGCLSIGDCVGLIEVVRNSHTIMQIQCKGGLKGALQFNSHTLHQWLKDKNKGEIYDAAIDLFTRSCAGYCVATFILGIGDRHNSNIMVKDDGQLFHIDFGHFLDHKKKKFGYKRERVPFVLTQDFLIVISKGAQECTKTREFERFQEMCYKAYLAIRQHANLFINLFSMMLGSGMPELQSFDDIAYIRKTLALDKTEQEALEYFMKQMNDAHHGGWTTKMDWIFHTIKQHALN
T5 sequence (P31751 whole entry): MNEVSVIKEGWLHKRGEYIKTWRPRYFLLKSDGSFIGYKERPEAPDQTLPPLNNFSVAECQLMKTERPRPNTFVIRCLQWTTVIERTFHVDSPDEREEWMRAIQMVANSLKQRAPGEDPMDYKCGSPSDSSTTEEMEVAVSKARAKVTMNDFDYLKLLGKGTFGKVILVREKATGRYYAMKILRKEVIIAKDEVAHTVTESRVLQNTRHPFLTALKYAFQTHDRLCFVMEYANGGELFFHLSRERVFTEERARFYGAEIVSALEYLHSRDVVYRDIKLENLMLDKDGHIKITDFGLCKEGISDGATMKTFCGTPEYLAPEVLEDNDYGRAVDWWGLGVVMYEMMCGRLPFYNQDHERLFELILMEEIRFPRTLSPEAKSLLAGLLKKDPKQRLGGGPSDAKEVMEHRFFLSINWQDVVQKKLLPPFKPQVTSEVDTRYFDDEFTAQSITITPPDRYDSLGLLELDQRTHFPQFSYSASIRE

Take `CNc1nc(Nc2ccc(S(=O)(=O)N3CCC(N4CCOCC4)CC3)cc2OC)nc2[nH]cc(Cl)c12` [Compound 12, 5-chloro-N2-(2-methoxy-4-((4-morpholinopiperidin-1-yl)sulfonyl)phenyl)-N4-methyl-7H-pyrrolo[2,3-d]pyrimidine-2,4-diamine]: the remaining binding at 1 µM at panel of 468 kinases [1] was determined as 94%; on panel of 468 kinases [2] it was 75%; at panel of 468 kinases [3], 100%; on panel of 468 kinases [4] it was 63%; on panel of 468 kinases [5] it was 100%; on panel of 468 kinases [6], 89%. Moreover, the remaining binding at 1 µM on panel of 468 kinases [7] was found to be 100%; at panel of 468 kinases [8] it was 89%; at panel of 468 kinases [9], 64%; on panel of 468 kinases [10] it was 100%; at panel of 468 kinases [11] it was 100%; on panel of 468 kinases [12] it was 65%. Further, the remaining binding at 1 µM on panel of 468 kinases [13] is 96%.

With `CNc1nc(Nc2ccc(P3(=O)CCN(C4CCOCC4)CC3)cc2OC)nc2[nH]cc(Cl)c12` [Compound 77, 4-(4-((5-chloro-4-(methylamino)-7H-pyrrolo[2,3-d]pyrimidin-2-yl)amino)-3-methoxyphenyl)-1-(tetrahydro-2H-pyran-4-yl)-1,4-azaphosphinane 4-oxide], the remaining binding at 1 µM amounted to 90% at panel of 468 kinases [1]; 70% at panel of 468 kinases [2]; 100% at panel of 468 kinases [3]; 62% at panel of 468 kinases [4]; 100% on panel of 468 kinases [5]; 100% on panel of 468 kinases [6]. In addition, the remaining binding at 1 µM on panel of 468 kinases [7] was found to be 91%; at panel of 468 kinases [8] it was 100%; at panel of 468 kinases [9], 84%; at panel of 468 kinases [10], 94%; at panel of 468 kinases [11], 100%; at panel of 468 kinases [12], 67%. For the same compound, the remaining binding at 1 µM at panel of 468 kinases [13] is 96%.

With `CNc1nc(Nc2ccc(C(=O)N3CCC(N4CCOCC4)CC3)c3c2OCO3)nc2[nH]cc(Cl)c12` [Compound 75, (7-((5-chloro-4-(methylamino)-7H-pyrrolo[2,3-d]pyrimidin-2-yl)amino)benzo[d][1,3]dioxol-4-yl)(4-morpholinopiperidin-1-yl)methanone], the remaining binding at 1 µM came out at 96% at panel of 468 kinases [1]; 19% at panel of 468 kinases [2]; 98% at panel of 468 kinases [3]; 57% on panel of 468 kinases [4]; 100% at panel of 468 kinases [5]; 94% at panel of 468 kinases [6]. The remaining binding at 1 µM on panel of 468 kinases [7] was 100%; on panel of 468 kinases [8], 62%; on panel of 468 kinases [9], 60%; on panel of 468 kinases [10] it was 100%; on panel of 468 kinases [11], 28%; on panel of 468 kinases [12], 78%. Besides, the remaining binding at 1 µM at panel of 468 kinases [13] turned out to be 53%.
